Values of other authors, collected in patent publication US20220273701A1, “TREATMENT FOR REDUCING ADVERSE EVENTS INCLUDING CHEMOTHERAPY DISCOMFORT AND OTHER CONDITIONS” (priority 2019, published 2022).

Compound | pKa of Acid (or pH of 1:1 mixture)
NCC(=O)O [Glycine/Glycine anion, Glycine] | 9.60
N[C@@H](CS)C(=O)O [Cysteine/Cysteine anion, Cysteine] | 10.78
Tyrosine anion [Tyrosine anion/Tyrosine dianion] | 10.07
Boric Acid [Boric Acid/Borate] | 9.0
CC(C)[C@H](N)C(=O)O [Valine/Valine anion, Valine] | 9.62
Tris(hydroxymethyl)aminomethane | 8.2
Arginine anion [Arginine anion/Arginine dianion] | 12.48
O=S(=O)(O)CCNC1CCCCC1 [N-Cyclohexyl-2-aminoethanesulfonic acid] | 9.3
C[C@H](N)C(=O)O [Alanine/Alanine anion, Alanine] | 9.69
Lysine anion [Lysine anion/Lysine dianion] | 10.79
O=S(=O)(O)CCCNC(CO)(CO)CO [tris(hydroxymethyl)methylamino]propanesulfonic acid] | 8.55
O=C(O)[C@@H]1CCCN1 [Proline/Proline anion, Proline] | 10.60
O=S(=O)(O)CCCNC1CCCCC1 [N-cyclohexyl-3-aminopropanesulfonic acid] | 10.4
CC[C@H](C)[C@H](N)C(=O)O [Isoleucine/Isoleucine anion, Isoleucine] | 9.60
